Data set [1] deals with Melanoderm SEs. The data set can be described thus: Warthin-Starry silver staining of melanin granules in Melanoderms. Format: cell-based, human. The conditions noted are these: in formulation B at all three concentrations (0.4%, 1%, 2%), 7 days, compared to formulation only. Here is the method: Tissue from each Melanoderm of Example 13 was carefully cut from inserts using a sterile scalpel blade (no. 11) and cut in half. One half was submerged overnight at −20° C. in RNAlater solution (Qiagen, UK) for RNA stabilization. The following day excess RNAlater solution was removed, and samples stored at −80° C. until RNA extracted for qPCR. The second half of each tissue was fixed overnight in 10% neutral buffered formalin then processed for wax embedding, sectioning, and Warthin-Starry staining.
All reagents used were of research grade quality and obtained from Sigma, UK. For silver staining high purity photo-grade (>99%) Silver nitrate was used. All reagents were prepared in acidulated (citrulated) distilled water (approx. 1 ml/L of 1% Citric acid was added to distilled water to change the pH to 3.4). Other equipment used were two water baths pre-set at 43° C. and 54° C., plastic staining tubs and slide racks for incubating slides, magnetic stirrers, and calibrated pH meter.
Melanin in tissue sections was stained using the modified Warthin-Starry staining method (Warthin, A. et al., Am. J. Syph. (1920) 4:97-103; Warkel, R. et al., Am. J. Clin. Path. (1980) 73 June (6): 812-5.). Briefly, 7 μm tissue sections were cut from wax blocks and floated onto charged slides (Leica Xtra clipped corner glass slides). […]

The test system of data set [2] is skin equivalents. Description: Total melanin assay. Type of data set: cell-based, human. Here is the method: The skin equivalents used in this study was from the same donors as in Example 2. The determination of the total melanin content of the skin equivalent was determined using a total melanin assay.
The total melanin content of the SE was calculated by dissolving the SE in Soluene and reading the absorbance against a standard curve. The SEs were removed from culture on day 20 and washed with PBS. They were then transferred to a glass centrifuge tube and 500 μl Soluene added. The tubes were then covered with […]®, gently vortexed and placed on the Thermomixer at 50° C. for 1 hour. The tubes were then gently vortexed and 150 μl of the sample and synthetic melanin standards pipetted in triplicate into a glass 96 well plate. The absorbance was then measured at 490 nm on a Spectrophotometer. Results are presented in μg/ml against a standard curve. The change of melanin content is expressed as a percentage change versus vehicle control samples. An ANOVA (with Dunnett's post-test) was used for the statistical analysis.
Three experiments were conducted, and the same donors were used as in Example 2. The sample sizes were as follows: experiment 1 n=2, experiment 2 n=4 and experiment 3 n=7. Peptides 1 (SEQ ID NO: 2), 3 (SEQ ID NO: 3) and 4 (SEQ ID NO: 4) were tested.

Data set [3] deals with Tyrosinase (TYR). Description: qPCR expression analysis of melanogenesis markers in Melanoderm SEs. Format: cell-based, human. The conditions noted are these: 0.4% in formulation B, day 7, compared to formulation B only (p=0.027, t-test). How it is done: (§1) RNA stabilized Melanoderm tissue from Example 13 was thawed on ice RNA extracted using the RNeasy extraction kit (Qiagen, UK) according to manufacturer's instructions.
(§2) To ensure efficient lysis, tissue was ground in lysis buffer in a RNase-free 1.5 ml centrifuge tube using a sterile microbiological colony picker then passed through a Qiashredder column (Qiagen, UK) before lysate was purified. To prevent carry over of gDNA to qPCR, on-column digestion using 80 μl of DNase enzyme was added (DNase on column digestion kit, Sigma, UK). RNA was eluted in a 50 μl volume of sterile elution buffer and stored at −80° C. until use. For cDNA reverse transcription 8 μl of RNA was added as template in a 20 μl final volume in a 96-well plate using the iScript Advanced cDNA Synthesis Kit for RT-qPCR (Bio-Rad, UK) according to manufacturer's instructions. Low profile 96-well PCR plates and seals for qPCR reactions were obtained from Thermofisher. For qPCR 1 μl of cDNA from each test sample and relevant controls were amplified in a 96-well plate using SsoAdvanced Universal SYBR® Green Supermix and target pigmentation specific gene primers (pigment cell-specific pre-melanosomal protein (PMEL), Tyrosinase-related protein-1 (TYRP-1) and Tyrosinase (TYR)) in a 20 μl final reaction volume. Prevalidated primers, templates and gDNA controls were sourced from Bio-Rad, UK. Prevalidated template cDNA was included as a positive control for each gene tested. Ribosomal protein-20 (RPS20) was used as a housekeeping gene control. Samples were amplified using an Applied Biosystems StepOne Plus qPCR machine and associated software. Differences in fold gene expression between treatments and untreated controls were calculated from RPS20 reference gene normalised Ct values using the ΔΔCt method (2-(ΔΔCt)). Final expression values were log 10 transformed prior to statistical analysis (unpaired t-test) using Prism software.
In general terms: Quantitative PCR measures a nucleic acid by following its amplification.

The subject of data set [4] is PMEL. The description is as above. The settings on record: 0.4% in formulation B, day 7, against formulation B treatment only (p=0.015, t-test). Type of data set: cell-based, human. How it is done:
as §1, §2

The subject of data set [5] is TYRP-1. Described as above. The conditions noted are these: 0.4% in formulation B, day 7, against formulation B only (p=0.005, t-test). Format: cell-based, human. How it is done:
as §1, §2

The nature of data set [6]: Stability study of compositions comprising peptides 1 and 4 (HPLC purity). Format: physicochemical. The conditions noted are these: water-free formulations A, B and C, 20° C., 12 weeks. Here is the method: Samples of the separate formulations were stored at 20° C. […] Analysis of peptide purity in ointment and PBS solutions was performed using standard HPLC-UV-DA methods when the samples were freshly prepared (time 0) and after 1, 2, 6, 8 and 12 weeks.

[7] abbreviates: experiments 1 and 3, 10 mg/ml topical, day 20.

Two substances from patent publication US20240228536A1, “PEPTIDES FOR USE IN SKIN AND HAIR PIGMENTATION” (Follicum AB, priority 2020, published 2024) can be followed below.

As to “Asn-Ala-Ala-Met (NAAM; (1)..(4) Peptide 4)”, in data set [1], the “melanin in epidermal layers (Warthin-Starry)” value is on record as “greater increase in melanin in all layers of the epidermis”. For the same substance, the “total melanin content of skin equivalents vs vehicle control” value was “significant increase in melanin content” in data set [2] (experiment 2, 10 mg/ml topical, day 20, n=4) and “increase in melanin content” in data set [2] (setting [7]). The “relative expression of Tyrosinase (TYR) (qPCR)” value in data set [3] is recorded as “significant increase in expression”. The “relative expression of PMEL (qPCR)” value in data set [4] is given as “greatest increase in expression which was significant”. Further, the “relative expression of TYRP-1 (qPCR)” value in data set [5] was “moderately significant increase in expression”.
As to “Asn-Ala-His-Met (NAHM; (1)..(4) Peptide 1)”, the “melanin in epidermal layers (Warthin-Starry)” value in data set [1] is “modest increase in melanin in the basal and stratum spinosum layers”. Besides, the “total melanin content of skin equivalents vs vehicle control” value in data set [2] (setting [7]) is reported as “increase in melanin content”. Further, the “stability (peptide purity by HPLC)” value in data set [6] is listed as “stable”.
